# Results from patent publication US20260027179A1, “ANTI-SYNUCLEINOPATHY PEPTIDE AND METHODS TO TREAT NEURODEGENERATIVE DISEASES” (University of British Columbia, priority 2021, published 2026).
# Peptide text beside a SMILES is read from it. * marks the point of attachment. Cbz = O=C(OCc1ccccc1)*
# Tests used:
# C57BL/6 mice = assay: MPTP mouse model, rotarod test; assay type: in vivo; details: peptide 6 μmol/kg i.p. twice a day for 12 days, vs MPTP group
# Experimental: (§1) C57BL/6 mice (20-25 g) received intraperitoneal (i.p.) injection of 30 mg/kg parkinsonian toxin MPTP hydrochloride once a day for 5 days to induce dopaminergic neuron death in the substantia nigra, while the control mice received equal volumes of saline injection. 6 μmol/kg Tat-βsyn-degron peptide or control Tat-βsyn peptide was i.p. injected into the MPTP-treated mice every 12 hrs from the first day of MPTP injection until 7 days after the last injection of MPTP. All groups of mice then underwent a rotarod test before they were sacrificed.
# The rotarod test was performed as previously described (Heldermon, C. D. et al., PloS one 2, e772, doi:10.1371/journal.pone.0000772 (2007)), with modifications. Briefly, 6 days after the last MPTP injection, all mice received 4 rounds of training on the rotarod (Stoelting Co.). In the first two rounds of training, the rotarod was maintained at constant speed of 20 rpm for 3 min. In the second two rounds of training, the rotarod reversed rotation direction every 3 turns at the constant speed of 20 rpm for 3 min. […] Mice were tested 10 times at 20 min intervals, and the time that they remained on the rotarod during each test was recorded. […] The motor performance of the mouse was expressed as the latency to fall off the rotarod.
# dopaminergic neurons = assay: MPTP mouse model, dopaminergic neuronal damage (TH immunoblotting, TH immunohistochemistry); assay type: in vivo; details: peptide 6 μmol/kg i.p. twice a day for 12 days
# Experimental: C57BL/6 mice were i.p. injected with 30 mg/kg parkinsonian toxin MPTP (or saline as control), once per day for 5 consecutive days, to induce dopaminergic neuron damage. The effects of MPTP administration on mouse rotarod performance and damage to dopaminergic neurons were then analyzed 1 week after the last injection of MPTP. To determine the effect of α-synuclein knockdown in protecting dopaminergic neurons against MPTP, the Tat-βsyn-degron peptide or its control Tat-βsyn (6 μmol/kg; i.p.) was used in some animals twice a day for 12 days, beginning the first day of MPTP injection. […] The striatum is a region that receives dopaminergic neuronal projections from the substantia nigra and is also deeply affected in PD. Consistent with the specific neurotoxic effects of MPTP on dopaminergic neurons, in mice receiving MPTP injection alone there was a significant loss of protein TH in both dopaminergic neurons in the substantia nigra-containing ventral midbrain (FIGS. 6a and 6c) and dopaminergic neuronal terminals in the striatum (FIGS. 6d and 6f). […] As expected, the specific knockdown of α-synuclein by Tat-βsyn-degron protected against MPTP-induced dopaminergic neuronal injury (FIGS. 6c and 6f).
# as §1
# (§2) Brain tissues or cultured cells were lysed on ice in the lysis buffer and then the solution was centrifuged at 14,000 rpm for 10 min at 4° C. Next, the supernatant was collected and protein concentrations were determined using a BCA protein assay kit (Thermo Scientific, 23227). Equal amount of protein samples was mixed with 4× sample buffer, boiled at 100° C. for 5 min, and separated on 10% sodium dodecyl sulphate-polyacrylamide gel electrophoresis (SDS-PAGE). Proteins were then transferred to Immobilon-PTM polyvinylidene fluoride (PVDF) membranes (Bio-Rad, 162-0177). The membranes were blocked with 5% non-fat milk in Tris-buffered saline containing 0.1% Tween-20 (TBST) for 1 hr at room temperature, and then incubated overnight at 4° C. with primary antibody. After washing 3×5 min in TBST, membranes were incubated with horseradish peroxidase-conjugated secondary antibody for 1 hr at room temperature. After another three washes with TBST, protein was visualized in the Bio-Rad Imager using ECL western blotting substrate (Pierce, 32016). The band density of each protein was quantified by the Bio-Rad Quantity One software and the relative optical density was analyzed relative to the loading control β-actin on the same membrane.
# C57BL/6 mice were anesthetized with 1.5 g/kg urethane (Sigma, U2500) and then perfused with 0.9% saline and 4% paraformaldehyde. Brains were removed and fixed in 4% paraformaldehyde for 24 hrs before being transferred to 30% sucrose/PBS solution for cryoprotection. The brains were then sectioned into 30 μm slices using a Leica cryostat. After blocking and permeabilization using a PBS solution containing 1% BSA and 0.2% Triton X-100 for 30 min at room temperature, the brain slices were incubated with anti-TH antibody (1:800 dilution) for 3 days at 4° C. Finally, the TH-positive neurons in the substantia nigra and TH-positive neuronal terminals in the striatum were stained using the anti-mouse Ig HRP detection kit (BD Transduction Laboratories, 551011) according to manufacturer's instruction, and visualized under Zeiss Axio Observer D1 microscope. […]
# endogenous α-synuclein = target: T1, endogenous α-synuclein (Rattus norvegicus, UniProt P37377); assay: Knockdown of endogenous α-synuclein in primary cortical neuron cultures, immunoblot; assay type: cell-based
# T1 construct: endogenous in cells; host or cells: primary rat cortical neurons (14 DIV) and primary rat ventral midbrain neurons (3 DIV)
# Experimental: Primary rat neuron cultures were prepared from embryos of pregnant Sprague-Dawley rats (E18). The experimental protocol was approved by the University of British Columbia Animal Care Committee. Briefly, the cortical tissue or ventral midbrain tissue was isolated into ice cold HBSS (Invitrogen, 14170-112) and then digested with 0.25% trypsin-EDTA at 37° C. for 30 min. After washing with warm DMEM (supplemented with 10% FBS) three times, neurons were suspended in neuron culture media and dissociated by trituration using varying sizes of pipettes. Neurons were then centrifuged, and the pellet was re-suspended in culture media, washed twice with culture media, and plated on the poly-D-lysine-coated plates. Neuron culture was maintained in the 37° C. incubator with […] and 5% CO2. The morning after culturing, 2/3 of the neuron culture media was replaced with fresh neuron culture media. Media was then replaced every 3-4 days. Primary rat cortical neuron culture was used 14 days in vitro (DIV) and primary rat ventral midbrain neuron culture was used 3 DIV.
# Tat-βsyn-degron and Tat-βsyn peptides were first dissolved in sterile water as a 25 mM stock solution and then diluted directly in the neurobasal culture media to make the desired working concentration. 20 mM MPP+iodide stock solution was made freshly each time and diluted in the neurobasal culture media directly to make the desired working concentration. For 48 hrs treatment, neuron culture media containing MPP+ and peptides were replaced every 24 hrs.
# as §2
# [1] = target: T2, purified recombinant human α-synuclein (Homo sapiens, UniProt P37840); assay: Biacore peptide-protein binding assay; details: 0.20-12.50 μM peptide, report point 20 seconds into dissociation
# T2 construct: His (histidine tag) (N); purchased Sigma S7820-500UG
# Experimental: Biacore experiments were performed using a Biacore 3000 instrument (GE Healthcare Biosciences, Upsala, Sweden) and HBS running buffer, pH 7.4, containing 10 mM HEPES, 150 mM NaCl, 3 mM EDTA, and 0.005% surfactant P20. A research-grade CM5 sensor chip was activated with a mixture containing equal molar amounts of EDC (N-ethyl-N′-(dimethylaminopropyl) carbodiide and NHS (N-hydroxysuccinimide). Purified recombinant human α-synuclein (N-terminal histidine tagged, Sigma, S7820-500UG), diluted in sodium acetate pH 3.1, was then injected and covalently coupled to a flow cell of the sensor chip surface by amide bonding. Residual unreacted sites were blocked with ethanolamine. A reference surface, to account for non-specific binding, was similarly generated by activating and blocking an adjacent flow cell. Approximately 1500 resonance units (RU), equivalent to a surface concentration of 1500 pg/mm^2 of α-synuclein, was immobilized.
# To ascertain the binding interaction between α-synuclein knockdown peptides and α-synuclein, synthetic Tat-βsyn-degron peptide or control tat peptide was serially diluted and sequentially injected over the active surface containing immobilized α-synuclein and the reference surface for 3 minutes at a flow rate of 30 μl/minute. The peptides were then allowed to dissociate for 3 minutes during which time HBS running buffer was injected. The resultant sensorgrams were double-referenced by subtracting out the binding on the reference surface and the response from the HBS blank buffer control. Binding response report points were collected 20 seconds into the dissociation phase of the interaction at time 200 seconds, which represents a stable binding response and excludes bulk refractive index changes and nonspecific binding.
compound,measurement,setting,value
"YGRKKRRQRRRRTKSGVYLVG [Tat-βsyn, control peptide lacking the proteasomal targeting signal, reference compound]",MPTP-induced motor deficits (latency to fall off the rotarod),C57BL/6 mice,significantly reduced
same,"MPTP-induced dopaminergic neuronal damage (overall, FIG. 6 and FIG. 7a-d)",dopaminergic neurons,"small, non-significant decrease"
same,endogenous α-synuclein protein levels,"endogenous α-synuclein; bath application 24 hrs, 5-50 μM (control 50 μM), cortical neuron cultures",had no effect
"CC(C)C[C@@H](C=O)NC(=O)[C@H](CC(C)C)NC(=O)[C@H](CC(C)C)NC(=O)OCc1ccccc1 [MG132, reference compound] (Cbz-Leu-Leu-Leu-aldehyde)",effect on Tat-βsyn-degron induced knockdown of α-synuclein,"endogenous α-synuclein; 10 μM MG132 + 50 μM Tat-βsyn-degron, 24 hrs",prevented Tat-βsyn-degron induced knockdown of α-synuclein
"YGRKKRRQRRR [Tat peptide, reference compound]",binding response to immobilized α-synuclein,[1],little binding
YGRKKRRQRRRGVLYVGSKTRRRRG [Tat-βsynN-degron],binding response to immobilized α-synuclein,[1],robust and similar binding
